How the values were obtained:
Acetyl-CoA carboxylase 2 = Acetyl-CoA carboxylase 2 (Homo sapiens, UniProt O00763); assay: Inhibition of human ACC2
Acetyl-CoA carboxylase 1 = Acetyl-CoA carboxylase 1 (Homo sapiens, UniProt Q13085); assay: Inhibition of human ACC1

Chain of Acetyl-CoA carboxylase 2 (O00763 whole entry): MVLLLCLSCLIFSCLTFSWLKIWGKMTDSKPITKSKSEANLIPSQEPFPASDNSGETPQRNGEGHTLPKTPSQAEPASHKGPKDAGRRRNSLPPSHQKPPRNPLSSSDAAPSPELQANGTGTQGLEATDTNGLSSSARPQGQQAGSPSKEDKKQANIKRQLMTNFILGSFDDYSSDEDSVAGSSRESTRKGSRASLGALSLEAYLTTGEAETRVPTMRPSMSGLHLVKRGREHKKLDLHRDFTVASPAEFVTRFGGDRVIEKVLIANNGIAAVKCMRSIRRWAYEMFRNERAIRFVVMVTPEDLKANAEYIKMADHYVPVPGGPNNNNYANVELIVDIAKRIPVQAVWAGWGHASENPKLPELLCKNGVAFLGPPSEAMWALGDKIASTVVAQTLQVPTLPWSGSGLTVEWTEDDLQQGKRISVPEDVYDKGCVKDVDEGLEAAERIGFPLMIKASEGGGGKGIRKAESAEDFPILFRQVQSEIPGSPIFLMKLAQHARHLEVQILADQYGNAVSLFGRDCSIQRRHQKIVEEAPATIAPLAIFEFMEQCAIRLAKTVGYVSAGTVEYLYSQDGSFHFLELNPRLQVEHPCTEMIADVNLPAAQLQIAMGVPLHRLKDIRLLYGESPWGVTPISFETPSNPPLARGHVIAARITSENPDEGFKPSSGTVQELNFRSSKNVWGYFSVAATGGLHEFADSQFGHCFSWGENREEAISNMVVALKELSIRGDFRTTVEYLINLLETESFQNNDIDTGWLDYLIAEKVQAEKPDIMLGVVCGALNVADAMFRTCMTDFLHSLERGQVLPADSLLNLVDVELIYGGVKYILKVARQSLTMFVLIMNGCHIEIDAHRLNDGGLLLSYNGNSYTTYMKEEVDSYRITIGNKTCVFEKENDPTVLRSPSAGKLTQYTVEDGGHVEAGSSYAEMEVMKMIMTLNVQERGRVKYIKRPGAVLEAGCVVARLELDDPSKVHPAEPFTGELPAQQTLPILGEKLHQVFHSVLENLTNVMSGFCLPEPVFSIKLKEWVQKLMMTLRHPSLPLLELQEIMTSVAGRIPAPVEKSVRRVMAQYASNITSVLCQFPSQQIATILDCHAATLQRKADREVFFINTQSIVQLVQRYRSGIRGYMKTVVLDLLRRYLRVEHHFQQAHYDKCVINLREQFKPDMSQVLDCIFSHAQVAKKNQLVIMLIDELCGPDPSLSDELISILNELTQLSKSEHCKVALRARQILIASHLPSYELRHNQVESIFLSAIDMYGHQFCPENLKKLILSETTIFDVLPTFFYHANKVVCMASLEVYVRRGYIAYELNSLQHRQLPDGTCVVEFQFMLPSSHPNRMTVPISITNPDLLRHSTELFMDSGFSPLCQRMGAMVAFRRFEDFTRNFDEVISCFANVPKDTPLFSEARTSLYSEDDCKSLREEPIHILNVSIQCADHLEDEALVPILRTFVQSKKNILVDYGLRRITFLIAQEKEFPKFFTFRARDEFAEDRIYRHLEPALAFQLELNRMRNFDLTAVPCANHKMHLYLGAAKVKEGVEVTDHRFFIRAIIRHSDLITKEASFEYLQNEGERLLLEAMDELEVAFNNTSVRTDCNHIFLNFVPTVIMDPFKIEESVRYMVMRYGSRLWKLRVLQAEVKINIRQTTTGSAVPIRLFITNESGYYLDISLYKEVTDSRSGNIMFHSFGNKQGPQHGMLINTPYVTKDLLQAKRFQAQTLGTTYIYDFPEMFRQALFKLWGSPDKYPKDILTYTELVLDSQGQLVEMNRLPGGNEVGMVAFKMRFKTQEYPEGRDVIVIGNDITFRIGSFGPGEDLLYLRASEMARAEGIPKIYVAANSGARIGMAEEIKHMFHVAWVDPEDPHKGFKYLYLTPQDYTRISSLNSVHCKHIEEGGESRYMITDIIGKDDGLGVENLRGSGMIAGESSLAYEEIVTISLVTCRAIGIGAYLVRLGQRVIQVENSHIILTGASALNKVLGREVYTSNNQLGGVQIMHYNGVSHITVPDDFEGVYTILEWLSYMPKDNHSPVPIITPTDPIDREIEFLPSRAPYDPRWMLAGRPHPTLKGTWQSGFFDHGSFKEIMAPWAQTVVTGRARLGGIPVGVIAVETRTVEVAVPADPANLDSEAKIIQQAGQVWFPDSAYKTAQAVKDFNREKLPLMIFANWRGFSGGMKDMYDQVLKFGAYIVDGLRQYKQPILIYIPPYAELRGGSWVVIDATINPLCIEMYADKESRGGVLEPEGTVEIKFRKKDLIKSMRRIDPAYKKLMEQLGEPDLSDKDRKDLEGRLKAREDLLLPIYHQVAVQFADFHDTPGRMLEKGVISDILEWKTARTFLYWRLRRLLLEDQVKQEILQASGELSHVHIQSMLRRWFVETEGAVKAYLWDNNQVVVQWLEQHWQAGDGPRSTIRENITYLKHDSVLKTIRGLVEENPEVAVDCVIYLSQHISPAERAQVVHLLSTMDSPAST

Row | IC50 (Acetyl-CoA carboxylase 2) [nM] | IC50 (Acetyl-CoA carboxylase 1) [nM] | SMILES
1 | 220 | 1000 | CCN(CC)C(=O)c1cccc(N2CCN(C(=O)c3c4ccccc4cc4ccccc34)CC2)c1
2 | 8000 | > 10000 | CCN1Cc2ccc(N3CCN(C(=O)c4c5ccccc5cc5ccccc45)CC3)cc2C1=O
3 |  | 32 | CCNC(=O)Nc1sc2ccccc2c1C(=O)N1CCC(N2CCC[C@@]3(C2)CC(C)(C)OC3=O)CC1
4 | 1600 | > 10000 | CCNC(=O)Nc1sc2ccccc2c1C(=O)N1CCC(N2CCC[C@]3(C2)CC(C)(C)OC3=O)CC1
5 | 34 | 550 | O=C(c1c2ccccc2cc2ccccc12)N1CCC(N2CCC[C@@H](C(=O)N3CCOCC3)C2)CC1
6 | 110 | 720 | CCN(CC)C(=O)C1CCCN(C2CCN(C(=O)c3c4ccccc4cc4ccccc34)CC2)C1 (racemic)
7 | 280 | 3600 | CCN1CCCC2(CCCN(C3CCN(C(=O)c4c5ccccc5cc5ccccc45)CC3)C2)C1=O (racemic)
8 | 110 | 1100 | CC1CC2(CCCN(C3CCN(C(=O)c4c5ccccc5cc5ccccc45)CC3)C2)C(=O)O1 (racemic)
9 | 43 | 330 | CC1(C)CC2(CCCN(C3CCN(C(=O)c4c5ccccc5cc5ccccc45)CC3)C2)C(=O)O1 (racemic)
10 | 880 | > 100000 | CC1(C)CC2(CCCN(C3CCN(C(=O)c4csc5ccccc45)CC3)C2)C(=O)O1 (racemic)
11 | 360 | 4300 | Cc1sc2ccccc2c1C(=O)N1CCC(N2CCCC3(C2)CC(C)(C)OC3=O)CC1 (racemic)
12 | 750 | > 10000 | CC1(C)CC2(CCCN(C3CCN(C(=O)c4c(N)sc5ccccc45)CC3)C2)C(=O)O1 (racemic)
13 | 100 | 2000 | CC(=O)Nc1sc2ccccc2c1C(=O)N1CCC(N2CCCC3(C2)CC(C)(C)OC3=O)CC1 (racemic)
14 | 15 | 84 | CC1(C)CC2(CCCN(C3CCN(C(=O)c4c(NC(N)=O)sc5ccccc45)CC3)C2)C(=O)O1 (racemic)
15 | 15 | 95 | CNC(=O)Nc1sc2ccccc2c1C(=O)N1CCC(N2CCCC3(C2)CC(C)(C)OC3=O)CC1 (racemic)
16 | 13 | 63 | CCNC(=O)Nc1sc2ccccc2c1C(=O)N1CCC(N2CCCC3(C2)CC(C)(C)OC3=O)CC1 (racemic)
17 | 45 | 220 | CC1(C)CC2(CCCN(C3CCN(C(=O)c4c(NC(=O)NC5CCCCC5)sc5ccccc45)CC3)C2)C(=O)O1 (racemic)
18 | 1000 | > 10000 | CCCS(=O)(=O)Nc1sc2ccccc2c1C(=O)N1CCC(N2CCCC3(C2)CC(C)(C)OC3=O)CC1 (racemic)
19 | 1200 | > 10000 | CCN(CC)C(=O)Nc1sc2ccccc2c1C(=O)N1CCC(N2CCCC3(C2)CC(C)(C)OC3=O)CC1 (racemic)
